One experiment has as its system A. ceylanicum. As to conditions: cited from earlier work; for % Parasite reduction: hamsters.
Experiment [1] concerns Ancylostoma ceylanicum hookworms. The experiment is described as follows: A. ceylanicum hookworm curative experiment in hamsters (worm burdens, fecal egg counts). The experiment is classed as in vivo. Particulars: single 10 mg/kg (71 nmol/kg) Cry5B dose per os. The method, then:
(A) Intestinal hookworm burdens in nine hamsters following treatment with PY79-vector or PY79-Cry5B (10 mg/kg Cry5B) (error bars in all panels show standard errors). The average worm burdens were 18.6±2.6 and 1.3±0.3 for PY79-vector and PY79-Cry5B, respectively. (B) Fecal egg counts on day −1, day +1, and day +3 relative to the day of treatment. The actual egg counts for PY79-vector and PY79-Cry5B were 965±193 and 1,044±99, respectively, on day −1, 1,055±230 and 94±60, respectively, on day +1, and 1,055±227 and 100±42, respectively, on day +3. EPG, eggs per gram of feces. (C) In vivo dose-response experiment with 12 hamsters. […]
For in vivo curative experiments, male hamsters were infected per os with 150 A. ceylanicum infectious larvae. On day 17 postinoculation (p.i.), a fecal sample was collected from each hamster, and the number of eggs was counted using the modified McMaster technique (13). […] The hamsters were sacrificed on day 22 p.i., and intestinal parasite burdens were determined as described previously (14). The one-tailed Mann-Whitney test was performed to compare the two groups for significance in the experiment using a dose of 10 mg/kg of body weight (data were calculated and plotted using Prism 5 [GraphPad Software Inc., La Jolla, CA]). […]

Where two headings read alike, the source gives them in different places.

Regarding `CN1CCCN=C1/C=C/c1cccs1` [Pyrantel, pyrantel], the “% Parasite reduction” value in the experiment on A. ceylanicum (10 mg/kg) is on record as 87%. For `CCCSc1ccc2nc(NC(=O)OC)[nH]c2c1` [Albendazole, albendazole], in the experiment with A. ceylanicum (1.25 mg/kg (4.7 μmol/kg)), the “% Parasite reduction” value is 88%. In the case of `C/C(=N/c1ccc(/N=C/c2ccc(/C=N/c3ccc(/N=C(/C)N(C)C)cc3)cc2)cc1)N(C)C` [Tribendimidine, tribendimidine], the “% Parasite reduction” value in the experiment with A. ceylanicum (10 mg/kg) is on record as 75%. `c1ccc([C@H]2CN3CCSC3=N2)cc1` [Levamisole, levamisole]: the “% Parasite reduction” value with A. ceylanicum (10 mg/kg) is on record as 60%.

B1: Cry5B: Bacillus thuringiensis crystal (Cry) protein Cry5B, purified protein (sequence FIG. 2, SEQ ID NO:1) (protein, listed as Bacillus thuringiensis)
chain: MATINELYPVPYNVLAHPIKEVDDPYSWSNLLKGIQEGWEEWGKTGQKKLFEDHLTIAWNLYKTGKLDYFALTKASISLIGFIPGAEAAVPFINMFVDFVWPKLFGANTEGKDQQLFNAIMDAVNKMVDNKFLSYNLSTLNKTIEGLQGNLGLFQNAIQVAICQGSTPERVNFDQNCTPCNPNQPCKDDLDRVASRFDTANSQFTQHLPEFKNPWSDENSTQEFKRTSVELTLPMYTTVATLHLLLYEGYIEFMTKWNFHNEQYLNNLKVELQQLIHSYSETVRTSFLQFLPTLNNRSKSSVNAYNRYVRNMTVNCLDIAATWPTFDTHNYHQGGKLDLTRIILSDTAGPIEEYTTGDKTSGPEHSNITPNNILDTPSPTYQHSFVSVDSIVYSRKELQQLDIATYSTNNSNNCHPYGLRLSYTDGSRYDYGDNQPDFTTSNNNYCHNSYTAPITLVNARHLYNAKGSLQNVESLVVSTVNGGSGSCICDAWINYLRPPQTSKNESRPDQKINVLYPITETVNKGTGGNLGVISAYVPMELVPENVIGDVNADTKLPLTQLKGFPFEKYGSEYNNRGISLVREWINGNNAVKLSNSQSVGIQITNQTKQKYEIRCRYASKGDNNVYFNVDLSENPFRNSISFGSTESSVVGVQGENGKYILKSITTVEIPAGSFYVHITNQGSSDLFLDRIEFVPKIQFQFCDNNNLHCDCNNPVDTDCTFCCVCTSLTDCDCNNPRGLDCTLCCQVENQLPSFVTLTDLQNITTQVNALVASSEHDTLATDVSDYEIEEVVLKVDALSGEVFGKEKKALRKLVNHTKRLSKARNLLIGGNFDNLDAWYRGRNVVNVSDHELFKSDHVLLPPPTLYSSYMFQKVEESKLKANTRYTVSGFIAHAEDLEIVVSRYGQEVKKVVQVPYGEAFPLTSRGAICCPPRSTSNGKPADPHFFSYSIDVGTLDVEANPGIELGLRIVERTGMARVSNLEIREDRPLKKNELRNVQRAARNWRTAYDQERAEVTALIQPVLNQINALYENEDWNGAIRSGVSYHDLEAIVLPTLPKLNHWFMSDMLGEQGSILAQFQEALDRAYTQLEESTILHNGHFTTDAANWTIEGDAHHAILEDGRRVLRLPDWSSSVSQTIEIENFDPDKEYQLVFHAQGEGTVSLQHGEEGEYVETHPHKSANFTTSHRQGVTFETNKVTVEITSEDGEFLVDHIALVEAPLPTDDQSSDGNTTSNTNSNTSMNNNQ
modifications: pesticidal crystal (Cry)
Regarding B1, the “% reduction of hookworm burden relative to control” value in experiment [1] is 93%. The “% reduction of hookworm burden” value with A. ceylanicum (purified protein 10 mg/kg, previously published data (ref 14)) is recorded as 65%.

The values above are taken from patent US12673077B2, “Anthelmintic probiotic compositions and methods” (priority 2014, dated 2026).
